Assay results published in ChEMBL document CHEMBL5058649, “Data for DCP probe BAY 1816032” (2022).

Legend:
[1] = biological target: Muscarinic acetylcholine receptor M5 (Homo sapiens) (UniProt P08912); details: Compound concentration 10.0 uM
[2] = biological target: G protein-coupled receptor kinase 4 (Homo sapiens) (UniProt P32298); experiment: GRK4 DiscoveRx kinase panel; details: Compound concentration 1.0 uM
[3] = biological target: Tyrosine-protein kinase receptor UFO (Homo sapiens) (UniProt P30530); experiment: AXL DiscoveRx kinase panel; details: Compound concentration 1.0 uM
[4] = biological target: Insulin receptor (Homo sapiens) (UniProt P06213); experiment: INSR DiscoveRx kinase panel; details: Compound concentration 1.0 uM
[5] = biological target: Ribosomal protein S6 kinase alpha-1 (Homo sapiens) (UniProt Q15418); experiment: RSK1(Kin.Dom.1-N-terminal) DiscoveRx kinase panel; details: Compound concentration 1.0 uM
Ribosomal protein S6 kinase alpha-1 (Homo sapiens), sequence (Q15418 whole entry): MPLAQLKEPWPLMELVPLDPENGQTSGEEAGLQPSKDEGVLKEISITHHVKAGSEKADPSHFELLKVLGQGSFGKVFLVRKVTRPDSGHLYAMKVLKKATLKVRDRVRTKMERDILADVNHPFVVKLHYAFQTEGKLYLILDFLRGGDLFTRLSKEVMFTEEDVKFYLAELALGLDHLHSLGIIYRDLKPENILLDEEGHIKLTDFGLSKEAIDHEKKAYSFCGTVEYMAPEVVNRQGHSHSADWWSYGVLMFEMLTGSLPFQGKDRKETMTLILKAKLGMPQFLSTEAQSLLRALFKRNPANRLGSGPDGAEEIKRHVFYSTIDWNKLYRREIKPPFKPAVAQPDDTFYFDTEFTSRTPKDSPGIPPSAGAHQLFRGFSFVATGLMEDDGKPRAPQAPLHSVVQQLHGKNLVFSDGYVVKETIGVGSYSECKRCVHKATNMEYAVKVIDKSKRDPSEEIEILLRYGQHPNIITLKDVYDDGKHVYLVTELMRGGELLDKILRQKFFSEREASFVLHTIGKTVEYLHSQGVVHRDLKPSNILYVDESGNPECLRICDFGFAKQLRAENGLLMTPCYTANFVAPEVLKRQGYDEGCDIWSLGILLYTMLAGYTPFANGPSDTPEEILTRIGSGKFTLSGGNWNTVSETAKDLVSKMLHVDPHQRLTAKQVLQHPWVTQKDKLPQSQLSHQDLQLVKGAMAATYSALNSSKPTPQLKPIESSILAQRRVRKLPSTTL

[6] = biological target: Serine/threonine-protein kinase N1 (Homo sapiens) (UniProt Q16512); experiment: PKN1 DiscoveRx kinase panel; details: Compound concentration 1.0 uM
[7] = biological target: Mitogen-activated protein kinase 6 (Homo sapiens) (UniProt Q16659); experiment: ERK3 DiscoveRx kinase panel; details: Compound concentration 1.0 uM
[8] = biological target: Cyclin-dependent kinase-like 1 (Homo sapiens) (UniProt Q00532); experiment: CDKL1 DiscoveRx kinase panel; details: Compound concentration 1.0 uM
[9] = biological target: Cyclin-dependent kinase 19 (Homo sapiens) (UniProt Q9BWU1); experiment: CDK11 DiscoveRx kinase panel; details: Compound concentration 1.0 uM
[10] = biological target: Serine/threonine-protein kinase Sgk1 (Homo sapiens) (UniProt O00141); experiment: SGK DiscoveRx kinase panel; details: Compound concentration 1.0 uM
[11] = biological target: Cyclin-dependent kinase 11A (Homo sapiens) (UniProt Q9UQ88); experiment: CDC2L2 DiscoveRx kinase panel; details: Compound concentration 1.0 uM
[12] = biological target: Myosin-IIIb (Homo sapiens) (UniProt Q8WXR4); experiment: MYO3B DiscoveRx kinase panel; details: Compound concentration 1.0 uM
[13] = biological target: Ephrin type-A receptor 7 (Homo sapiens) (UniProt Q15375); experiment: EPHA7 DiscoveRx kinase panel; details: Compound concentration 1.0 uM
[14] = biological target: Serine/threonine-protein kinase PLK2 (Homo sapiens) (UniProt Q9NYY3); experiment: PLK2 DiscoveRx kinase panel; details: Compound concentration 1.0 uM
[15] = biological target: Cyclin-dependent kinase 9 (Homo sapiens) (UniProt P50750); experiment: CDK9 DiscoveRx kinase panel; details: Compound concentration 1.0 uM
[16] = biological target: Muscle, skeletal receptor tyrosine-protein kinase (Homo sapiens) (UniProt O15146); experiment: MUSK DiscoveRx kinase panel; details: Compound concentration 1.0 uM
[17] = biological target: Cyclin-dependent kinase 14 (Homo sapiens) (UniProt O94921); experiment: PFTK1 DiscoveRx kinase panel; details: Compound concentration 1.0 uM
[18] = biological target: TGF-beta receptor type-1 (Homo sapiens) (UniProt P36897); experiment: TGFBR1 DiscoveRx kinase panel; details: Compound concentration 1.0 uM
[19] = biological target: Ephrin type-A receptor 6 (Homo sapiens) (UniProt Q9UF33); experiment: EPHA6 DiscoveRx kinase panel; details: Compound concentration 1.0 uM
[20] = biological target: Protein kinase C epsilon type (Homo sapiens) (UniProt Q02156); experiment: PRKCE DiscoveRx kinase panel; details: Compound concentration 1.0 uM
[21] = biological target: Calcium/calmodulin-dependent protein kinase type II subunit beta (Homo sapiens) (UniProt Q13554); experiment: CAMK2B DiscoveRx kinase panel; details: Compound concentration 1.0 uM
[22] = biological target: Tyrosine-protein kinase JAK1 (Homo sapiens) (UniProt P23458); experiment: JAK1(JH1domain-catalytic) DiscoveRx kinase panel; details: Compound concentration 1.0 uM
[23] = biological target: Dual specificity protein kinase CLK1 (Homo sapiens) (UniProt P49759); experiment: CLK1 DiscoveRx kinase panel; details: Compound concentration 1.0 uM
[24] = biological target: Serine/threonine-protein kinase Nek2 (Homo sapiens) (UniProt P51955); experiment: NEK2 DiscoveRx kinase panel; details: Compound concentration 1.0 uM
[25] = biological target: Cyclin-dependent kinase 4/cyclin D1 (Homo sapiens) (UniProt P11802+P24385); experiment: CDK4-cyclinD1 DiscoveRx kinase panel; type: protein-complex assay; details: Compound concentration 1.0 uM
[26] = biological target: Tyrosine-protein kinase Fes/Fps (Homo sapiens) (UniProt P07332); experiment: FES DiscoveRx kinase panel; details: Compound concentration 1.0 uM
Tyrosine-protein kinase Fes/Fps (Homo sapiens), sequence (P07332 whole entry, canonical isoform): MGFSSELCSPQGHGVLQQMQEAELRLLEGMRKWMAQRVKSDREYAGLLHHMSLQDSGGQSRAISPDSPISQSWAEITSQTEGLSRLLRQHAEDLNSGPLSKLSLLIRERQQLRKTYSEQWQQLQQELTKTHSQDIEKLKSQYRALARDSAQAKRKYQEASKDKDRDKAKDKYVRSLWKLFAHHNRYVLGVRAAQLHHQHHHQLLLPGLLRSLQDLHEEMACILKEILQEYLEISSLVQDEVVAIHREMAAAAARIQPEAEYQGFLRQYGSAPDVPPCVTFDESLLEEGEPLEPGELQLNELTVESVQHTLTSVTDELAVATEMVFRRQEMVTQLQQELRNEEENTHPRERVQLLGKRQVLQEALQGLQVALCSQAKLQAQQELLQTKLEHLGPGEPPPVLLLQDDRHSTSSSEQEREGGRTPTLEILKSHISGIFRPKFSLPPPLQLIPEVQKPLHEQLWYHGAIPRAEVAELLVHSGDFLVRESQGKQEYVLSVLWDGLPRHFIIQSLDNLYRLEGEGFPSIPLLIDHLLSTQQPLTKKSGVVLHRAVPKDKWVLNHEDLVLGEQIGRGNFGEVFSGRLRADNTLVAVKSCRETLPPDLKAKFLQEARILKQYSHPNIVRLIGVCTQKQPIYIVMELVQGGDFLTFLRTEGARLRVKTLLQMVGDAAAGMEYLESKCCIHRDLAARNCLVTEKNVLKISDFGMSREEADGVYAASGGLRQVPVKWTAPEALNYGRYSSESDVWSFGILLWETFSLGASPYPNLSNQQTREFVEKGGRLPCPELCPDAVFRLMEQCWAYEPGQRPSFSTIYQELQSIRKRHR

[27] = biological target: Casein kinase I isoform alpha (Homo sapiens) (UniProt P48729); experiment: CSNK1A1 DiscoveRx kinase panel; details: Compound concentration 1.0 uM
[28] = biological target: Rho-associated protein kinase 1 (Homo sapiens) (UniProt Q13464); experiment: ROCK1 DiscoveRx kinase panel; details: Compound concentration 1.0 uM
[29] = biological target: STE20-like serine/threonine-protein kinase (Homo sapiens) (UniProt Q9H2G2); experiment: SLK DiscoveRx kinase panel; details: Compound concentration 1.0 uM
[30] = biological target: Serine/threonine-protein kinase 26 (Homo sapiens) (UniProt Q9P289); experiment: MST4 DiscoveRx kinase panel; details: Compound concentration 1.0 uM
[31] = biological target: Sodium-dependent dopamine transporter (Homo sapiens, UniProt Q01959); details: Compound concentration 10.0 uM
Sodium-dependent dopamine transporter, sequence (Q01959 whole entry): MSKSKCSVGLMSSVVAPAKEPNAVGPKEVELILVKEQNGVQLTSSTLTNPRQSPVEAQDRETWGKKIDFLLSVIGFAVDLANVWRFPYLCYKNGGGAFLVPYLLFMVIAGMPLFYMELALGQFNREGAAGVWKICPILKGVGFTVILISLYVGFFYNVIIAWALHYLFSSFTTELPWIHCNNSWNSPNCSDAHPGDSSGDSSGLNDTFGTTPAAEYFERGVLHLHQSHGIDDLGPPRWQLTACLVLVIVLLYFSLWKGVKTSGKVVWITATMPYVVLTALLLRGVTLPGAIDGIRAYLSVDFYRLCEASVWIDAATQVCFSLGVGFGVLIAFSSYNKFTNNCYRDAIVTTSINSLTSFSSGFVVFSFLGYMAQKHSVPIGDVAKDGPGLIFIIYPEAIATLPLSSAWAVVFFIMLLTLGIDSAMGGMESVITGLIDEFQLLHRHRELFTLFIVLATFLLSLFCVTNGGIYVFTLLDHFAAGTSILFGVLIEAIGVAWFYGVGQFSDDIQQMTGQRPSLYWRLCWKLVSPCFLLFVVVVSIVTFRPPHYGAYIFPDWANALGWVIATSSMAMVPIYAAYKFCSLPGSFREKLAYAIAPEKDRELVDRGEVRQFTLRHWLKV

[32] = biological target: Fibroblast growth factor receptor 1 (Homo sapiens) (UniProt P11362); experiment: FGFR1 DiscoveRx kinase panel; details: Compound concentration 1.0 uM
[33] = biological target: Phosphatidylinositol 4,5-bisphosphate 3-kinase catalytic subunit beta isoform (Homo sapiens) (UniProt P42338); experiment: PIK3CB DiscoveRx kinase panel; details: Compound concentration 1.0 uM
[34] = organism: Homo sapiens; experiment: Glutamate, Metabotropic, mGlu5 Eurofins-Panlabs radioligand binding assay; details: Compound concentration 10.0 uM
[35] = biological target: Phosphatidylinositol 4,5-bisphosphate 3-kinase catalytic subunit delta isoform (Homo sapiens) (UniProt O00329); experiment: PIK3CD DiscoveRx kinase panel; details: Compound concentration 1.0 uM
[36] = biological target: Serine/threonine-protein kinase 32C (Homo sapiens) (UniProt Q86UX6); experiment: YANK3 DiscoveRx kinase panel; details: Compound concentration 1.0 uM
[37] = biological target: NUAK family SNF1-like kinase 1 (Homo sapiens) (UniProt O60285); experiment: ARK5 DiscoveRx kinase panel; details: Compound concentration 1.0 uM
[38] = test system: eIF-2-alpha kinase GCN2 (Homo sapiens), Q9P2K8 [S808G]; experiment: GCN2(Kin.Dom.2,S808G) DiscoveRx kinase panel; details: Compound concentration 1.0 uM
[39] = biological target: Tyrosine-protein kinase FRK (Homo sapiens) (UniProt P42685); experiment: FRK DiscoveRx kinase panel; details: Compound concentration 1.0 uM
[40] = biological target: Cyclin-dependent kinase-like 5 (Homo sapiens) (UniProt O76039); experiment: CDKL5 DiscoveRx kinase panel; details: Compound concentration 1.0 uM
[41] = organism: Homo sapiens; experiment: Inhibition of Phosphodiesterase PDE4 at compound concentration of 10.0 uM in the Eurofins-Panlabs enzyme assay (Eurofins_assay_154000); type: protein assay; parameters: substrate with concentration 1.01 uM [3 H]cAMP + cAMP, incubation time 20 min, incubation temperature 25 C; details: Compound concentration 10.0 uM
[42] = biological target: Adenosine Transporter (Cavia porcellus) (UniProt H0V4R7+H0UUG1+H0V3Z5); experiment: Inhibition of Transporter, Adenosine at compound concentration of 10.0 uM in the Eurofins-Panlabs radioligand binding assay (Eurofins_assay_202000); type: protein assay; parameters: ligand concentration 0.5 nM, non-specific ligand with concentration 5 uM Nitrobenzylthioinosine, incubation time 30 min, incubation temperature 25 C; details: Compound concentration 10.0 uM
[43] = test system: HeLa; experiment: HeLa cell line Proliferation assay; type: functional, Homo sapiens; details: time 4 day
[44] = biological target: Aurora kinase C (Homo sapiens) (UniProt Q9UQB9); experiment: AURKC DiscoveRx kinase panel; details: Compound concentration 1.0 uM
[45] = biological target: cAMP-dependent protein kinase catalytic subunit alpha (Homo sapiens) (UniProt P17612); experiment: PKAC-alpha DiscoveRx kinase panel; details: Compound concentration 1.0 uM
[46] = biological target: Membrane-associated tyrosine- and threonine-specific cdc2-inhibitory kinase (Homo sapiens) (UniProt Q99640); experiment: PKMYT1 DiscoveRx kinase panel; details: Compound concentration 1.0 uM
[47] = biological target: Voltage-dependent N-type calcium channel subunit alpha-1B (Homo sapiens) (UniProt Q00975); experiment: Inhibition of Calcium Channel N-Type at 10 µM in the Eurofins-Panlabs radioligand binding assay (Eurofins_assay_216000); details: Rattus norvegicus; Compound concentration 10.0 uM
Voltage-dependent N-type calcium channel subunit alpha-1B (Homo sapiens), sequence (Q00975 whole entry, looked up): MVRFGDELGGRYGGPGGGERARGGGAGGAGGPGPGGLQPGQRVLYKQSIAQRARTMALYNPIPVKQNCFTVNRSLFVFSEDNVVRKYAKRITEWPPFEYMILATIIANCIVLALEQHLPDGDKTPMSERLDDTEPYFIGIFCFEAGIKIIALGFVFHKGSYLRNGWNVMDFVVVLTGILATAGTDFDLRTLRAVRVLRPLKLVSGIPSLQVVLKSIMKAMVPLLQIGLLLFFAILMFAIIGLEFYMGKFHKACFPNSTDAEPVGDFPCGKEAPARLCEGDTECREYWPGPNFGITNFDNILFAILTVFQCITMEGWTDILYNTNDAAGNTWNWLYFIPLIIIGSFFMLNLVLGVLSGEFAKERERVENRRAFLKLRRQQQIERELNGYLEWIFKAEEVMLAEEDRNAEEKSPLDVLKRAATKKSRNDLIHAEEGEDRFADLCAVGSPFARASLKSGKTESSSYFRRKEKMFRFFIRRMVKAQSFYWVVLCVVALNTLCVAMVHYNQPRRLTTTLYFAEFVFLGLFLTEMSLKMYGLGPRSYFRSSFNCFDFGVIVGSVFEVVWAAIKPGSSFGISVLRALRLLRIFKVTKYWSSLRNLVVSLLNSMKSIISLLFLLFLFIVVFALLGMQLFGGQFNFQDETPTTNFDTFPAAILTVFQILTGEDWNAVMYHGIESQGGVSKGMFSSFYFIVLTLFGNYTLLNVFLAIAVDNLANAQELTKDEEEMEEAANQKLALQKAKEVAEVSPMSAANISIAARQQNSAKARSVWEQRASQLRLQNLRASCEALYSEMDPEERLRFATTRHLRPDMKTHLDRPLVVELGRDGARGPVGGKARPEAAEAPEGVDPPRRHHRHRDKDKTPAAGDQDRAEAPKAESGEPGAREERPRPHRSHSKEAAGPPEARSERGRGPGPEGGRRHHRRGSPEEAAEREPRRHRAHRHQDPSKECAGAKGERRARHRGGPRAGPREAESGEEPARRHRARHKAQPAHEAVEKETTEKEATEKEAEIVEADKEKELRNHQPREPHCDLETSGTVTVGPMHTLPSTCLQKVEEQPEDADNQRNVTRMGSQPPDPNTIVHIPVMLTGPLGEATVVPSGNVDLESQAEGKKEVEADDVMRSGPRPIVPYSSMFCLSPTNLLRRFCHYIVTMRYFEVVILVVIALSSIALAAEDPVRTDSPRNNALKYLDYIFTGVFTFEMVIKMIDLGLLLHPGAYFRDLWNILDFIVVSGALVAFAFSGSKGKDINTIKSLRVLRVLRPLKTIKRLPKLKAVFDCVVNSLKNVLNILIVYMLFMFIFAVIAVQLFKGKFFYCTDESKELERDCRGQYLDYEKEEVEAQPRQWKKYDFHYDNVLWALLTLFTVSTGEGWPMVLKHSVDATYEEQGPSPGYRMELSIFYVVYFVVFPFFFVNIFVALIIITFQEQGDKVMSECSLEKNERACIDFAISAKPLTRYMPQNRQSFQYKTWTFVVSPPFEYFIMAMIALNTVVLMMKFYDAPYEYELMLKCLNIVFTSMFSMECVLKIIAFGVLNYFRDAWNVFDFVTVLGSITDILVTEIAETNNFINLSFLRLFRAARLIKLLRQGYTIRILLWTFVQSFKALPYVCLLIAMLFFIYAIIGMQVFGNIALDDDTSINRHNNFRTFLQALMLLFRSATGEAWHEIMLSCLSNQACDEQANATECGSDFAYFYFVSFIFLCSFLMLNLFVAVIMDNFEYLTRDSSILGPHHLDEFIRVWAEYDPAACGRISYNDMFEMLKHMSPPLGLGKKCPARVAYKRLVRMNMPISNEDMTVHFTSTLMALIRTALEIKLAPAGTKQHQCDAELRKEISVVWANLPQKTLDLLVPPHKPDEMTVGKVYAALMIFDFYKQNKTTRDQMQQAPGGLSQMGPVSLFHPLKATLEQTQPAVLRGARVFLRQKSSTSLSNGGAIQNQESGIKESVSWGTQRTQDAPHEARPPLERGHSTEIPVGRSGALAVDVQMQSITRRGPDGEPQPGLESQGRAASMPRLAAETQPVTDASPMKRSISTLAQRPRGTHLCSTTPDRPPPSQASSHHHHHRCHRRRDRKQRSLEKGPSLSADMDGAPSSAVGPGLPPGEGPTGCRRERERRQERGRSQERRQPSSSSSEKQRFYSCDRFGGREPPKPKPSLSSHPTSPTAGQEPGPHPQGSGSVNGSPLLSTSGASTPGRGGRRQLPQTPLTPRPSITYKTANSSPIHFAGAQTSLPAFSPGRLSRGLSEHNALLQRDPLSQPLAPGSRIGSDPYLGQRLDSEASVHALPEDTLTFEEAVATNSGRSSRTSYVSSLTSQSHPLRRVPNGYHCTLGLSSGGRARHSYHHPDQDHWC

[48] = biological target: Interleukin-1 receptor-associated kinase 4 (Homo sapiens) (UniProt Q9NWZ3); experiment: IRAK4 DiscoveRx kinase panel; details: Compound concentration 1.0 uM
Interleukin-1 receptor-associated kinase 4 (Homo sapiens), sequence (Q9NWZ3 whole entry): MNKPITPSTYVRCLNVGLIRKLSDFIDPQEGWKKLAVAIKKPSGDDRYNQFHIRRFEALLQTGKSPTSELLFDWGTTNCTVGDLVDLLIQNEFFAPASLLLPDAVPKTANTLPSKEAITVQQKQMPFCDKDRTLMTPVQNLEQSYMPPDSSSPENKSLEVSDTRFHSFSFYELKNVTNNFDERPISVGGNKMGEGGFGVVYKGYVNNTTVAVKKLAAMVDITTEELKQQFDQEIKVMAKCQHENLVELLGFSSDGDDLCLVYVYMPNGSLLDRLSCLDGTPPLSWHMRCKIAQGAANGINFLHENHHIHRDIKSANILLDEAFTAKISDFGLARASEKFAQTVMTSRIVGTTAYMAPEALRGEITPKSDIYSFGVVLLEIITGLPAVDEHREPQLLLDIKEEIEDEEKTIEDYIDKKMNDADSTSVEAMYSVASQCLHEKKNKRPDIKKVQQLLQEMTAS

[49] = biological target: Ribosomal protein S6 kinase alpha-1 (Homo sapiens) (UniProt Q15418); experiment: RSK1(Kin.Dom.2-C-terminal) DiscoveRx kinase panel; details: Compound concentration 1.0 uM

COc1cnccc1Nc1nc(-c2nn(Cc3c(F)cc(OCCO)cc3F)c3ccccc23)ncc1OC
inhibition [1]: 8.89% | residual activity [2]: 79% | residual activity [3]: 47% | residual activity [4]: 97% | residual activity [5]: 80% | residual activity [6]: 92% | residual activity [7]: 93% | residual activity [8]: 81% | residual activity [9]: 78% | residual activity [10]: 93% | residual activity [11]: 100% | residual activity [12]: 91% | residual activity [13]: 98% | residual activity [14]: 100% | residual activity [15]: 99% | residual activity [16]: 93% | residual activity [17]: 87% | residual activity [18]: 53% | residual activity [19]: 89% | residual activity [20]: 100% | residual activity [21]: 100% | residual activity [22]: 90% | residual activity [23]: 100% | residual activity [24]: 90% | residual activity [25]: 100% | residual activity [26]: 80% | residual activity [27]: 99% | residual activity [28]: 100% | residual activity [29]: 100% | residual activity [30]: 100% | inhibition [31]: 60.2% | residual activity [32]: 87% | residual activity [33]: 97% | inhibition [34]: 17% | residual activity [35]: 100% | residual activity [36]: 72% | residual activity [37]: 92% | residual activity [38]: 91% | residual activity [39]: 85% | residual activity [40]: 100% | inhibition [41]: 52% | inhibition [42]: 71% | Cell Proliferation IC50 [43]: 1.6 µM | residual activity [44]: 100% | residual activity [45]: 100% | residual activity [46]: 100% | inhibition [47]: 10% | residual activity [48]: 100% | residual activity [49]: 100%
